# From US20150209373A1, “Progesterone Receptor Modulators for Use in Preventing or Treating Androgen Mediated Diseases” (PregLem SA, priority 2012, published 2015)
# Columns and labels:
# [1] = system: oestrogen receptors; experiment: in vitro nuclear receptor selectivity profile - oestrogen receptors; format: binding
# [2] = biological target: T1, androgen receptor (Homo sapiens, UniProt P10275); experiment: in vitro nuclear receptor selectivity profile - androgen receptor; format: binding
# T1 sequence (P10275 1-920): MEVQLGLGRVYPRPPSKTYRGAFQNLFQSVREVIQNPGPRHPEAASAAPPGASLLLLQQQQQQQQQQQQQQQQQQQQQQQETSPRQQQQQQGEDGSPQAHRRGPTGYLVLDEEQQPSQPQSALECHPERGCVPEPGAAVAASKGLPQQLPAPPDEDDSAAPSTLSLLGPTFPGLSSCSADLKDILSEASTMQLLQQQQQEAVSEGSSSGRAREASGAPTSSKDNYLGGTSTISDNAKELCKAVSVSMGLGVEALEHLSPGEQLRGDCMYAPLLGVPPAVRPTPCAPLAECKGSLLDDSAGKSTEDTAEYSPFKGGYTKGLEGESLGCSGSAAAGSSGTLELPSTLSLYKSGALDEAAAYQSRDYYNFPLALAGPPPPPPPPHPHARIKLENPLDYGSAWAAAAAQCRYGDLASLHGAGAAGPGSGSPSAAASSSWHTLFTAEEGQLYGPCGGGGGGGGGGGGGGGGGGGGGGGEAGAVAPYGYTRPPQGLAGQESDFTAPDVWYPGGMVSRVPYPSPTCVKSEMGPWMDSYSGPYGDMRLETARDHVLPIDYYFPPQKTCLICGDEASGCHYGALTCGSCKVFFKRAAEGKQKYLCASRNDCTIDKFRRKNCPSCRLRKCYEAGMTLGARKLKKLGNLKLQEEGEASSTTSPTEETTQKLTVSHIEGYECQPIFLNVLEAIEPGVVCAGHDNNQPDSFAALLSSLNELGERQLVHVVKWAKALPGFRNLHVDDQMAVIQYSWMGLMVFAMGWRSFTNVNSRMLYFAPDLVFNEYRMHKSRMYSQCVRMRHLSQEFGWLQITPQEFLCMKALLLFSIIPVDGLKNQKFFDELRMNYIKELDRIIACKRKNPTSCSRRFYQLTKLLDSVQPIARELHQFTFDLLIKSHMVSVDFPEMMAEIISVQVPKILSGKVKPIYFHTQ
# [3] = system: mice; experiment: 26 week oral carcinogenicity study with UPA in mice - organ weights; format: in vivo; conditions: 26 week oral carcinogenicity study in mice
# Protocol: (§1) During a 104 week rat carcinogenicity assay, we observed seminal vesicles and prostate contraction at dose-levels of 1 (seminal vesicles, only), 3 and 10 mg/kg/day (PGL09-005). Similarly, during 4 and 26 week assays in the mouse, decreases in epididymidis weights were recorded at dose-levels ranging between 15 and 300 mg/kg/day (Tables 1 and 2). Ulipristal Acetate Anti-Androgenic Effect in a 26 Week Oral Carcinogenicity Study in Mice
# [4] = biological target: T2, glucocorticoid receptor (Homo sapiens, UniProt P04150); experiment: in vitro nuclear receptor selectivity profile - glucocorticoid receptor; format: binding
# T2 sequence (P04150 1-777): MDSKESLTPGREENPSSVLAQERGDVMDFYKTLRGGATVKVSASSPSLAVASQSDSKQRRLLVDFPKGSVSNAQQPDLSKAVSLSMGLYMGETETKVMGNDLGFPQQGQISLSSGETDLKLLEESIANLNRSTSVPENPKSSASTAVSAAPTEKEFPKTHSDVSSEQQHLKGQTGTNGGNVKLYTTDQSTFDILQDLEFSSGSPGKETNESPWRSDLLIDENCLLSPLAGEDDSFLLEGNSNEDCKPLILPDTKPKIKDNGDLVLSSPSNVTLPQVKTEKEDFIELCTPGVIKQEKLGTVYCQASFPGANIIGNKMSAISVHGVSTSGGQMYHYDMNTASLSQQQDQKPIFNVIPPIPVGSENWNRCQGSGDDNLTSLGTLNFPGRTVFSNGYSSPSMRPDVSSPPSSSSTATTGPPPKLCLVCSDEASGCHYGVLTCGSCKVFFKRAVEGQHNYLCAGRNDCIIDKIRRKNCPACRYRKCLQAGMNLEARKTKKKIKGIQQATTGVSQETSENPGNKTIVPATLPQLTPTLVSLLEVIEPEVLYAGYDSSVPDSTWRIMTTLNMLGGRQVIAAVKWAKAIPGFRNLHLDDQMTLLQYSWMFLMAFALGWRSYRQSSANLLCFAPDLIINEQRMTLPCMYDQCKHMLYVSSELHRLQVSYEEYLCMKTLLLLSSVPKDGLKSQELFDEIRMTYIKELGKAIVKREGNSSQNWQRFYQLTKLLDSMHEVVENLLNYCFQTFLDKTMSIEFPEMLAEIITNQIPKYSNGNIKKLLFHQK
# [5] = in vivo activity profile
# [6] = system: mice; experiment: 4 week oral toxicity study with UPA in mice - organ weights; format: in vivo; conditions: 4 week oral toxicity study in mice
# Protocol: as §1, with “a 4” for “a 26”, “Oral Toxicity” for “Oral Carcinogenicity”
# [7] = system: rat; experiment: 104 week rat carcinogenicity assay (PGL09-005); format: in vivo; conditions: 104 weeks
# Protocol: as §1, with “2).” for “2). Ulipristal Acetate Anti-Androgenic Effect in a 26 Week Oral Carcinogenicity Study in Mice”
# [8] = biological target: T3, progesterone receptor (Homo sapiens, UniProt P06401); experiment: in vitro nuclear receptor selectivity profile - progesterone receptor; format: binding
# T3 sequence (P06401 1-933): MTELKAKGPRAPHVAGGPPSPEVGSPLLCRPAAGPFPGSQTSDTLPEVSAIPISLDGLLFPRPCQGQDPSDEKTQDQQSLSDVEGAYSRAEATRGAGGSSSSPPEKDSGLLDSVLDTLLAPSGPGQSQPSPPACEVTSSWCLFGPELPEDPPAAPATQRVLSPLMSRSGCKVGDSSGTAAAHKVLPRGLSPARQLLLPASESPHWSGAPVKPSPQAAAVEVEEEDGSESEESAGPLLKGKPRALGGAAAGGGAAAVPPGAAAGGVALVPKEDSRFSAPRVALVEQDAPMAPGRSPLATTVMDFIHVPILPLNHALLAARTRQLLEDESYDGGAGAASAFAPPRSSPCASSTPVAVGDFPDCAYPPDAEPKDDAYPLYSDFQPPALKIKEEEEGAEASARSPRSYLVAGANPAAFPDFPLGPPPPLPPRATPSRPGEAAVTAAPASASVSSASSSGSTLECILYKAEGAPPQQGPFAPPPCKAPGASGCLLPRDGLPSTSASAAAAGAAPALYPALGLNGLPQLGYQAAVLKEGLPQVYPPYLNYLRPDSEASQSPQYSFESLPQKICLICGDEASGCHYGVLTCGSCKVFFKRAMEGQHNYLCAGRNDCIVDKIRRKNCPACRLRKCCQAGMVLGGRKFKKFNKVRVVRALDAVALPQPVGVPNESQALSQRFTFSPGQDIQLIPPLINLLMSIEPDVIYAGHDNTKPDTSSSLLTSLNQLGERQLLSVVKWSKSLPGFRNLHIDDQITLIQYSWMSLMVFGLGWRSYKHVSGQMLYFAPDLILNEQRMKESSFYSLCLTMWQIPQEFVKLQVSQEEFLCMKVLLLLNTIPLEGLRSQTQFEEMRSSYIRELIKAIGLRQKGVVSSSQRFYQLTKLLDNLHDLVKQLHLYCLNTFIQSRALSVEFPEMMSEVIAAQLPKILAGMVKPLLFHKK
structure (smiles),measurement,setting,value
"CC(=O)O[C@]1(C(C)=O)CC[C@H]2[C@@H]3CCC4=CC(=O)CCC4=C3[C@@H](c3ccc(N(C)C)cc3)C[C@@]21C [UPA, Ulipristal acetate]",affinity for the oestrogen receptors,[1],no affinity
same,affinity for the androgen receptor,[2],much lower affinity
same,interpretation of decrease in organ weight,[3],suggestive of anti-androgenic like effects
same,affinity for the glucocorticoid receptor,[4],high affinity
same,in vivo anti-androgenic activity,[5],anti-androgenic effects
same,in vivo anti-glucocorticoid activity,[5],no significant anti-glucocorticoid effects
same,interpretation of decrease in organ weight,[6],suggestive of anti-androgenic like effects
same,seminal vesicles finding,"[7]; dose-levels of 1, 3 and 10 mg/kg/day",contraction
same,prostate finding,[7]; dose-levels of 3 and 10 mg/kg/day (not at 1 mg/kg/day),contraction
same,affinity for the progesterone receptor,[8],high affinity
